Assay results from patent US10787416B1, “Crystals of intermediate for benzindene prostaglandins and methods for preparation thereof” (CHIROGATE INTERNATIONAL INC., priority 2020, dated 2020).

Key:
[1] = Storage stability of the crystalline forms at room temperature; format: physicochemical; settings: room temperature for six months
[2] = Crystalline form conversion by grinding; format: physicochemical; settings: grinding at room temperature for about 10 minutes

## CCCCC[C@H](O)CC[C@@H]1[C@H]2Cc3cccc(OCC#N)c3C[C@H]2C[C@H]1O [Form I, 2-(((1R,2R,3aS,9aS)-2-hydroxy-1-((S)-3-hydroxyoctyl)-2,3,3a,4,9,9a-hexahydro-1H-cyclopenta[b]naphthalen-5-yl)oxy)acetonitrile]
[1]
  stability (other crystalline forms or degraded products of impurities): no other crystalline forms or degraded products of impurities

## CCCCC[C@H](O)CC[C@@H]1[C@H]2Cc3cccc(OCC#N)c3C[C@H]2C[C@H]1O [Form II, 2-(((1R,2R,3aS,9aS)-2-hydroxy-1-((S)-3-hydroxyoctyl)-2,3,3a,4,9,9a-hexahydro-1H-cyclopenta[b]naphthalen-5-yl)oxy)acetonitrile]
[2]
  crystalline form transformation on grinding: convert to Form I crystal
